# Where a name gives a salt, the structure may show the parent alone.
# Assays:
# [1] = Measurements of bulk density of mono- and dihydrochloride salts of Cobicistat; assay type: physicochemical; details: for volume filled by the salt in a glass cylinder (bulk density): about 0.30 g freely poured into glass cylinder without compaction, FIG. 12
# Text: Measurements of Bulk Density of Mono-and Dihydrochloride Salts of Cobicistat:
# Cobicistat monohydrochloride and dihydrochloride, prepared according to examples 7 and 5 respectively, (about 0.30 g) were freely poured into two glass cylinders without compaction. While 0.30 g of Cobicistat monohydrochloride filled a volume of almost 5m1, 0.30 g of Cobicistat dihydrochloride filled a volume of less than 2m1.
# [2] = Powder flowability / handling properties of Cobicistat hydrochloride salts; assay type: physicochemical; details: particle-shaped morphology, FIG. 9
Structure (SMILES),volume filled by the salt in a glass cylinder (bulk density) [1],flowability of the powder material [2],bulk density compared with the monohydrochloride salt ([1]; as demonstrated in FIG. 12)
"CC(C)c1nc(CN(C)C(=O)N[C@@H](CCN2CCOCC2)C(=O)N[C@H](CC[C@H](Cc2ccccc2)NC(=O)OCc2cncs2)Cc2ccccc2)cs1 [Cobicistat monohydrochloride, reference compound]",~5 m1,–,–
CC(C)c1nc(CN(C)C(=O)N[C@@H](CCN2CCOCC2)C(=O)N[C@H](CC[C@H](Cc2ccccc2)NC(=O)OCc2cncs2)Cc2ccccc2)cs1 [Cobicistat dihydrochloride],less than 2 m1,highly flowable,substantially higher

# Reference: US20160200716A1, “COBICISTAT DICHLOHYDRATE SALT” (ASSIA CHEMICAL INDUSTRIES LTD., priority 2012, published 2016)
